The results in this text go back to EP4321514B1, “COMPOUND HAVING ALK INHIBITORY ACTIVITY, PREPARATION METHOD THEREFOR AND USE THEREOF” (CGeneTech (Suzhou, China) Co., Ltd., priority 2021, dated 2022).

For one assay, the target named is T1, ALK kinase (Homo sapiens, UniProt Q9UM73).
T1 construct: purchased Thermo Scientific
Description: ALK kinase inhibition test. It is filed as biochemical. Particulars: 0.4 ng/well ALK kinase, 5 µM ATP, fluorescence 665 nm/615 nm. Here is the method:
The inhibitory activity of the compound in the present application on ALK kinase will be determined through in vitro tests, which can be represented by IC50 value.
4 µL of the diluted solution of the test compound and 2 µL of 0.4 ng/well ALK kinase solution (Thermo Scientific) were added into reaction wells in turn, incubated for 10 min at room temperature, then 4 µL of 0.7 µM biotin-labeled tyrosine kinase substrate and 5 µM ATP solution were added to start the kinase reaction.
Software Graphpad Prism 6 was used to fit an IC50 curve and calculate an IC50 value.

Assay [1] deals with human anaplastic large cell lymphoma cell Karpas 299. Description: ALK gene fusion cell proliferation inhibition test (CCK-8). Particulars: 72 hours incubation, CCK-8, absorbance at 450 nm. It is filed as cell-based. Here is the method:
The 96-well culture plate was placed in a 5 % carbon dioxide incubator at 37 °C to be cultured overnight. A test compound was formulated into a 10 mM storage solution with DMSO, and the 10mM storage solution was gradually diluted with DMSO at a dilution ration of 1:4 to obtain 9 concentration gradients of solutions of the test compound. The test compound was diluted with culture medium to 5 times the set final concentration of corresponding action, and the diluted solution of the test compound was added at 25 µL/well to corresponding cell wells according to the set compound layout, and then incubated in a 5 % carbon dioxide incubator at 37 °C for 72 hours. After 72 hours, 10 µL of CCK-8 was added into a cell culture medium, and the culture solution was sucked from adherent cells, then a freshly prepared CCK-8 detection solution was added and the cells were incubated in a 37 °C incubator for 1-4 hours. The absorbance at 450 nm wavelength on the SpectraMax i3X Microplate Reader was measured after gently shaking, with the absorbance at 650 nm as a reference.

T1 sequence (Q9UM73 19-1620): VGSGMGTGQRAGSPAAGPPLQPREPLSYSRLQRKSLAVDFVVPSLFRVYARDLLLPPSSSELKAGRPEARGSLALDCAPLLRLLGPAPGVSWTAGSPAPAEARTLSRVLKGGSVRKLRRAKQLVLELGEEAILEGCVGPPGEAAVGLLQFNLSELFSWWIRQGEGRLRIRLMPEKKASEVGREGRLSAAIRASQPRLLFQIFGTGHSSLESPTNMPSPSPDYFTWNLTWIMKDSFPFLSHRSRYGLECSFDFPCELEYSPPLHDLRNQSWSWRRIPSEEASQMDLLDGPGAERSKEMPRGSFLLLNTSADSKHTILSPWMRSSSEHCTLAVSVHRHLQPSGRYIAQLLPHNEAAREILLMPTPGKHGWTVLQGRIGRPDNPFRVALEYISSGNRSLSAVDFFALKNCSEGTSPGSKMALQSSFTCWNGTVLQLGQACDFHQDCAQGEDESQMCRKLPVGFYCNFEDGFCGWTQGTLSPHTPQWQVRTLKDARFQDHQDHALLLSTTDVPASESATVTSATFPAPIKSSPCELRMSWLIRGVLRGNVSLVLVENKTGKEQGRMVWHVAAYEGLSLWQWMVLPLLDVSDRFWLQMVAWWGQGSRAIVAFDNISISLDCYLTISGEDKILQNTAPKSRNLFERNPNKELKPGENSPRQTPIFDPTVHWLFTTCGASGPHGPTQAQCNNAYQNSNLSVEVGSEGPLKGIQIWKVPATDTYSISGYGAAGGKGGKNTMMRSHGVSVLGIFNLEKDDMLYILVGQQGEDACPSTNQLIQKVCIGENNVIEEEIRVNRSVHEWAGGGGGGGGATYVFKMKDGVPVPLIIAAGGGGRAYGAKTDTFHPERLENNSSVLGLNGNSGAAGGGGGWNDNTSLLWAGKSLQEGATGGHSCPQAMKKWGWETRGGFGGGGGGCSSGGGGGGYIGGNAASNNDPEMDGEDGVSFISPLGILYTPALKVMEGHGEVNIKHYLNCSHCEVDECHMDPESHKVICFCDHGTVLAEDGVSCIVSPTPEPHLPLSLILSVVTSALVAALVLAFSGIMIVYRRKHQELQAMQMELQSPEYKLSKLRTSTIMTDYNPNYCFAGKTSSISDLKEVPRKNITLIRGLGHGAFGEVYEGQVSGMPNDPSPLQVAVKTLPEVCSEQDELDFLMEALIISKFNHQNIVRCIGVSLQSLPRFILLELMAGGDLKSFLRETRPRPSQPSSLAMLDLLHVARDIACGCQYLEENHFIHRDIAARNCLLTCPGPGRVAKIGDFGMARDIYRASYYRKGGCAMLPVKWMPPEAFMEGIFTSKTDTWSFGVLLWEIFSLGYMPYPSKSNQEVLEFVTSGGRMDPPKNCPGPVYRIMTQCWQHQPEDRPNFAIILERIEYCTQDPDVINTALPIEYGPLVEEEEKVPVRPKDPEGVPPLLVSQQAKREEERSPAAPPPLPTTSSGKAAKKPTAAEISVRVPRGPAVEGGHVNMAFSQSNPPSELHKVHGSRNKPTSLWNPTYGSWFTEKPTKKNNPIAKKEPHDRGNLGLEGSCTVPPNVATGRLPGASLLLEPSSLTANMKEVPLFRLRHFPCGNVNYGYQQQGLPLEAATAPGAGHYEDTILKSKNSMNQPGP

`C#Cc1ccc2c3c([nH]c2c1)C(C)(C)c1cc(N2CCC(N4CCOCC4)CC2)c(CC)cc1C3=O` [Example E1, 9-ethyl-3-ethynyl-6,6-dimethyl-8-(4-morpholinopiperidin-1-yl)-5,6-dihydro-11H-benzo[b]carbazol-11-one]: the half-maximal inhibitory concentration (IC50) (as a rule, the point on the concentration scale where inhibition reaches its midpoint) came out at 5.09 nM on ALK kinase and 7.34 nM in assay [1].

As for `C#Cc1ccc2c3c([nH]c2c1)C(C)(C)c1cc(N2CCN(C)CC2)c(CC)cc1C3=O` [Example E2, 9-ethyl-3-ethynyl-6,6-dimethyl-8-(4-methylpiperazin-1-yl)-5,6-dihydro-11H-benzo[b]carbazol-11-one], the IC50 on ALK kinase turned out to be 7.38 nM; in assay [1], 18.1 nM.

Consider `C#Cc1ccc2c3c([nH]c2c1)C(C)(C)c1cc(N2CCN(C4CC4)CC2)c(CC)cc1C3=O` [Example E3, 8-(4-cyclopropylpiperazin-1-yl)-9-ethyl-3-ethynyl-6,6-dimethyl-5,6-dihydro-11H-benzo[b]carbazol-11-one], for which the figures for the IC50 (against ALK kinase; in assay [1]) were 37.8 nM and 144 nM, respectively.

`C#Cc1ccc2c3c([nH]c2c1)C(C)(C)c1cc(N2CCC(N4CCC4)CC2)c(CC)cc1C3=O` [Example E4, 8-(4-(azetidin-1-yl)piperidin-1-yl)-9-ethyl-3-ethynyl-6,6-dimethyl-5,6-dihydro-11H-benzo[b]carbazol-11-one]: the half-maximal inhibitory concentration (IC50) against ALK kinase was 6.35 nM; in assay [1], 32.6 nM.

As to `C#Cc1ccc2c3c([nH]c2c1)C(C)(C)c1cc(N2CCC(N4CCCC4)CC2)c(CC)cc1C3=O` [Example E5, 9-ethyl-3-ethynyl-6,6-dimethyl-8-(4-(pyrrolidin-1-yl)piperidin-1-yl)-5,6-dihydro-11H-benzo[b]car bazol-11-one], the IC50 on ALK kinase is 13.8 nM; in assay [1], 24.9 nM.

On to `C#Cc1ccc2c3c([nH]c2c1)C(C)(C)c1cc(N2CCC(N(C)C)CC2)c(CC)cc1C3=O` [Example E6, 8-(4-(dimethylamino)piperidin-1-yl)-9-ethyl-3-ethynyl-6,6-dimethyl-5,6-dihydro-11H-benzo[b]car bazol-11-one], for which the results for the IC50 (against ALK kinase; in assay [1]) were 21 nM and 107 nM, respectively.

Consider `C#Cc1ccc2c3c([nH]c2c1)C(C)(C)c1cc(N2CCNCC2)c(CC)cc1C3=O` [Example E7, 9-ethyl-3-ethynyl-6,6-dimethyl-8-(piperazin-1-yl)-5H-benzo[b]carbazol-11(6H)-one], for which the 50% inhibitory concentration (IC50) was found to be 7.41 nM against ALK kinase and 40.3 nM in assay [1].

For `C#Cc1ccc2c3c([nH]c2c1)C(C)(C)c1cc(C2CCNCC2)c(CC)cc1C3=O` [Example E8, 9-ethyl-3-ethynyl-6,6-dimethyl-8-(piperidin-4-yl)-5,6-dihydro-11H-benzo[b]carbazol-11-one], the IC50 came to 6.6 nM on ALK kinase and 109 nM in assay [1].

On to `C#Cc1ccc2c3c([nH]c2c1)C(C)(C)c1cc(C2CCN(C)CC2)c(CC)cc1C3=O` [Example E9, 9-ethyl-3-ethynyl-6,6-dimethyl-8-(1-methylpiperidin-4-yl)-5,6-dihydro-11H-benzo[b]carbazol-11-one], for which the IC50 against ALK kinase came out at 8.11 nM; in assay [1] it was 54.2 nM.

For `C#Cc1ccc2c3c([nH]c2c1)C(C)(C)c1cc(C2CCN(C4CC4)CC2)c(CC)cc1C3=O` [Example E10, 8-(1-cyclopropylpiperidin-4-yl)-9-ethyl-3-ethynyl-6,6-dimethyl-5,6-dihydro-11H-benzo[b]carbazol-11-one], the IC50 amounted to 20.5 nM on ALK kinase and 208 nM in assay [1].

Turning to `C#Cc1ccc2c3c([nH]c2c1)C(C)(C)c1cc(N2CCC(N4CCN(C5CC5)CC4)CC2)c(CC)cc1C3=O` [Example E11, 8-(4-(4-cyclopropylpiperazin-1-yl)piperidin-1-yl)-9-ethyl-3-ethynyl-6,6-dimethyl-5,6-dihydro-11 H-benzo[b]carbazol-11-one], the IC50 was 59 nM against ALK kinase and 186 nM in assay [1].
